Measured values taken from patent US10870647B2, “Imidazopyridine derivative, method for preparing same, and pharmaceutical composition containing same as active ingredient for preventing or treating cancer” (DAEGU-GYEONGBUK MEDICAL INNOVATION FOUNDATION, priority 2016, dated 2020).

Columns and labels:
Assay in all cases: Kinase selectivity, scanMAX Kinase assay panel (DiscoverX), % control at 1 uM
Format in all cases: binding
[1] = target: T1, scanMAX Kinase assay panel (Homo sapiens, UniProt O94806); conditions: PRKD3; 1 uM; read-out: Percent Control (%)
T1 construct: purchased DiscoverX
T1 sequence (O94806 1-890): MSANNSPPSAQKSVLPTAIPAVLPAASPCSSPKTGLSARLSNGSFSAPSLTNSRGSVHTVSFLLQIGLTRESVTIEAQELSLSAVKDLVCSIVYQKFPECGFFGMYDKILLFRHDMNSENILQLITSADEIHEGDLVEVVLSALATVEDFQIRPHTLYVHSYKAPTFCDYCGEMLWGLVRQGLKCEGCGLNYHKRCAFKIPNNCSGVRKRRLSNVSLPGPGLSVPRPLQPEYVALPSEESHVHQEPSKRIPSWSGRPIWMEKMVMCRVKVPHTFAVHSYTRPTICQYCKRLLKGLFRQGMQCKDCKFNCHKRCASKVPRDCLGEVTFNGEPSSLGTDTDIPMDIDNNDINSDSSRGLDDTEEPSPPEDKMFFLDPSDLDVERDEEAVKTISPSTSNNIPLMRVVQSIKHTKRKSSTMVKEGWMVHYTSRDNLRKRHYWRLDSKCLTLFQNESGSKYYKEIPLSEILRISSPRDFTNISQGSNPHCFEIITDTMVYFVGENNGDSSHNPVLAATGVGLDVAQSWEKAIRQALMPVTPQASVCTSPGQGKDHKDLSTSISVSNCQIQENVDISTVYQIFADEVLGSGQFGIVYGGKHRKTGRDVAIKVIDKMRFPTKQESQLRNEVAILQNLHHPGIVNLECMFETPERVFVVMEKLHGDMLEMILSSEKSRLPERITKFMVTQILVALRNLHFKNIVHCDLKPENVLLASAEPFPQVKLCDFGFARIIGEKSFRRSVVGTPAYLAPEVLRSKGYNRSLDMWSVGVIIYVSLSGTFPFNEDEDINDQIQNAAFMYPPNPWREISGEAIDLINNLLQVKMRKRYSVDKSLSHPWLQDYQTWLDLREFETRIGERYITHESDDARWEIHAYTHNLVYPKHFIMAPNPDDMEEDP
In short: (§1)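 A single concentration of 1 uM, in DMSO, is applied across the kinase panel. Activity against an individual enzyme is assigned where % control is less than 35.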

[2] = target: T2, scanMAX Kinase assay panel (Homo sapiens, UniProt P00533, G719S); conditions: EGFR (G719S); 1 uM; read-out: Percent Control (%)
T2 construct: purchased DiscoverX
T2 sequence (P00533 25-1210 G719S): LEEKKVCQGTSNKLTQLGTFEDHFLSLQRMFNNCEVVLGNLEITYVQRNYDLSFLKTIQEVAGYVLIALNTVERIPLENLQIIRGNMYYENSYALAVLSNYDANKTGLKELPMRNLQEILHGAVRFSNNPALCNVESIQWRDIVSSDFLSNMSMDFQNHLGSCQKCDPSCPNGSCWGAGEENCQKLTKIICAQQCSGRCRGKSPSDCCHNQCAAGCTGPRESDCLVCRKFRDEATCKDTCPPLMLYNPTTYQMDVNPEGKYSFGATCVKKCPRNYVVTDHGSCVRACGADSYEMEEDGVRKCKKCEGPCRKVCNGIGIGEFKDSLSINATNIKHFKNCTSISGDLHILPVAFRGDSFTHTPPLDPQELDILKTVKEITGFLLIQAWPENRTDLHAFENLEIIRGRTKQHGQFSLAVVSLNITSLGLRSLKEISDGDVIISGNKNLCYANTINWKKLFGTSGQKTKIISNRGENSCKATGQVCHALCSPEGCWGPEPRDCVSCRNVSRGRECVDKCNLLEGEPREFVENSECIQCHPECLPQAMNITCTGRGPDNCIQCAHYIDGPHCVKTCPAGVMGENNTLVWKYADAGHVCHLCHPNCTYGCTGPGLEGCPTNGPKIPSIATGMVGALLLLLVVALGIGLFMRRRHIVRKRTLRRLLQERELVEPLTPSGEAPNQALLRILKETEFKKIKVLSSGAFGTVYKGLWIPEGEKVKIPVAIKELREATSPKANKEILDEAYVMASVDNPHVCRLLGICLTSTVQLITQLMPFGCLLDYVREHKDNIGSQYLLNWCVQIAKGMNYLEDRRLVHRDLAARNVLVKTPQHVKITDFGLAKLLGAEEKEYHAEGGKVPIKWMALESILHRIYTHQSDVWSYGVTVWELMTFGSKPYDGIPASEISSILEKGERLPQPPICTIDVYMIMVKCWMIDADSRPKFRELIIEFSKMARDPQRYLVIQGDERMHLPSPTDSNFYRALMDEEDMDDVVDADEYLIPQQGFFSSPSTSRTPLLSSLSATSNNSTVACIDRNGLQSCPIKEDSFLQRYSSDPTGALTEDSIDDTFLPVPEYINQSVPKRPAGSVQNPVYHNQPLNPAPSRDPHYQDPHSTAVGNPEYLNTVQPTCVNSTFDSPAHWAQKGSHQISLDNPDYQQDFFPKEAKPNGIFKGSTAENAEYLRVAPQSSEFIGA
In short: as §1

[3] = target: T3, scanMAX Kinase assay panel (Homo sapiens, UniProt P10721, L576P); conditions: KIT (L576P); 1 uM; read-out: Percent Control (%)
T3 construct: purchased DiscoverX
T3 sequence (P10721 26-976 L576P): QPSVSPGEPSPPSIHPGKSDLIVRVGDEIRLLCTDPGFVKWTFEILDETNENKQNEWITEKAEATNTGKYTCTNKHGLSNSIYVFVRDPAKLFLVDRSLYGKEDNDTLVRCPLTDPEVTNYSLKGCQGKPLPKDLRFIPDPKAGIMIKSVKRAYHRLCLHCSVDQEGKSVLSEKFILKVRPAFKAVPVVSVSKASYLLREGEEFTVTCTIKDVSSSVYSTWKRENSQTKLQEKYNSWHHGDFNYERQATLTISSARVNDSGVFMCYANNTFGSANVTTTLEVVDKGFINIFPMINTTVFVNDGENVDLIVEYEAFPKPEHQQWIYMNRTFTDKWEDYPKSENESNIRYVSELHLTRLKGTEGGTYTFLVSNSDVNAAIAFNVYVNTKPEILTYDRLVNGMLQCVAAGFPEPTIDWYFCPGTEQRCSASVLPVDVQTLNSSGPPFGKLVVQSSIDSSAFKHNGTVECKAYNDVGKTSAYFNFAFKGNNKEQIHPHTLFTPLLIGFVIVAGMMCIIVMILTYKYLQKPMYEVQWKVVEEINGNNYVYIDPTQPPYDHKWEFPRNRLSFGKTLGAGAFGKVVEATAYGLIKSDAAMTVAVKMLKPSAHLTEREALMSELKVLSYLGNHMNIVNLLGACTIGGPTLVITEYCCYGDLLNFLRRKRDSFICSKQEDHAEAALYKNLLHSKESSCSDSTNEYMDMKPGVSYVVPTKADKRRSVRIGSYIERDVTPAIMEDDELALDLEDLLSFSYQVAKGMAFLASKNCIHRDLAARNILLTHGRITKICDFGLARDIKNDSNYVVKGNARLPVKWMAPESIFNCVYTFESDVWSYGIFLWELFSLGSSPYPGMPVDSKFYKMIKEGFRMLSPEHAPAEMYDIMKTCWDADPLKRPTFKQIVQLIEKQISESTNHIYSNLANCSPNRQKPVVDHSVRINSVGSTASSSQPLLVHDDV
In short: as §1

[4] = target: T4, scanMAX Kinase assay panel (Homo sapiens, UniProt P16591); conditions: FER; 1 uM; read-out: Percent Control (%)
T4 construct: purchased DiscoverX
T4 sequence (P16591 whole entry): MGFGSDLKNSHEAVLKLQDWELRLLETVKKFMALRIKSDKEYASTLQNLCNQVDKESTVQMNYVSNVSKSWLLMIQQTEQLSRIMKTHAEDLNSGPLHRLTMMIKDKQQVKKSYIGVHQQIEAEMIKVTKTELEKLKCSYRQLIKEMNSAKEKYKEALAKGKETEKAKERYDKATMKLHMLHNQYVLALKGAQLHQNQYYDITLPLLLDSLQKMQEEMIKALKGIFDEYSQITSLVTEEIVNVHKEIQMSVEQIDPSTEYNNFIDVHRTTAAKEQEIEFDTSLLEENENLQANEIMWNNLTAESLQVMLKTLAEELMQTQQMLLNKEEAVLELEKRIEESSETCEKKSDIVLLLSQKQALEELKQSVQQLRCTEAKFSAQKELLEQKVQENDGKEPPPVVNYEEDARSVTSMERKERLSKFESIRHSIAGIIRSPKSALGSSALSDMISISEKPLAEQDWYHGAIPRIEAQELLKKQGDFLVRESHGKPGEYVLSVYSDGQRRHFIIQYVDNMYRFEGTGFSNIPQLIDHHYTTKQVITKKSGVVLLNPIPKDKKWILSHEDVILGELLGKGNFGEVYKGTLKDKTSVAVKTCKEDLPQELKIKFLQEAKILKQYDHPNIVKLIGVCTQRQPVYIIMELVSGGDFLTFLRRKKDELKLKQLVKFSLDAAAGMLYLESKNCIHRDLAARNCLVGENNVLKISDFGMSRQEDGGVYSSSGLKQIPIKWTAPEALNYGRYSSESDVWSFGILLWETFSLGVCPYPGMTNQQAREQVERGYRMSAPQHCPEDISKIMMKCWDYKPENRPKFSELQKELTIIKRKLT
In short: as §1

[5] = target: T5, scanMAX Kinase assay panel (Homo sapiens, UniProt P27361); conditions: ERK1; 1 uM; read-out: Percent Control (%)
T5 construct: purchased DiscoverX
T5 sequence (P27361 whole entry): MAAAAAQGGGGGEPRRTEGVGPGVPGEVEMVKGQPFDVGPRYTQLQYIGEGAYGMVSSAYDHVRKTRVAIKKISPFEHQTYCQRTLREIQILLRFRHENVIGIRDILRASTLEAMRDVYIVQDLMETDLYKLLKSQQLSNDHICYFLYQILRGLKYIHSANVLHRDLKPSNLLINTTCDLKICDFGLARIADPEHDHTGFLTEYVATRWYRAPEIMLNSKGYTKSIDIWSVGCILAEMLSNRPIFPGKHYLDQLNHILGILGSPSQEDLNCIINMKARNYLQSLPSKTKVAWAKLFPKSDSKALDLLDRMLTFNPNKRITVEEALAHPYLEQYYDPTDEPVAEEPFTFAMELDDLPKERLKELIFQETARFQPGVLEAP
In short: as §1

[6] = target: T6, scanMAX Kinase assay panel (Homo sapiens, UniProt P51817); conditions: PRKX; 1 uM; read-out: Percent Control (%)
T6 construct: purchased DiscoverX
T6 sequence (P51817 1-358): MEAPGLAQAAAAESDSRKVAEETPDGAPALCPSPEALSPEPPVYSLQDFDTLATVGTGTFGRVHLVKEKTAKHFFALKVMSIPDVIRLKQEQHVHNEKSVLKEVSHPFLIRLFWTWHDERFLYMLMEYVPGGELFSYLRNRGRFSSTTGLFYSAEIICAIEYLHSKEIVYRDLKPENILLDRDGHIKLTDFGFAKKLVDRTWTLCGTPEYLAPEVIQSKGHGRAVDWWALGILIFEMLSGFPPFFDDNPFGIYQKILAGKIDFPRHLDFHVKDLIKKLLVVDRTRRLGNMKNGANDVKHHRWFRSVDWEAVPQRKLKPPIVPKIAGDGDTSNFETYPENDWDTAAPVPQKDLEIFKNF
In short: as §1

[7] = target: T7, scanMAX Kinase assay panel (Homo sapiens, UniProt Q15835); conditions: GRK1; 1 uM; read-out: Percent Control (%)
T7 construct: purchased DiscoverX
T7 sequence (Q15835 1-563): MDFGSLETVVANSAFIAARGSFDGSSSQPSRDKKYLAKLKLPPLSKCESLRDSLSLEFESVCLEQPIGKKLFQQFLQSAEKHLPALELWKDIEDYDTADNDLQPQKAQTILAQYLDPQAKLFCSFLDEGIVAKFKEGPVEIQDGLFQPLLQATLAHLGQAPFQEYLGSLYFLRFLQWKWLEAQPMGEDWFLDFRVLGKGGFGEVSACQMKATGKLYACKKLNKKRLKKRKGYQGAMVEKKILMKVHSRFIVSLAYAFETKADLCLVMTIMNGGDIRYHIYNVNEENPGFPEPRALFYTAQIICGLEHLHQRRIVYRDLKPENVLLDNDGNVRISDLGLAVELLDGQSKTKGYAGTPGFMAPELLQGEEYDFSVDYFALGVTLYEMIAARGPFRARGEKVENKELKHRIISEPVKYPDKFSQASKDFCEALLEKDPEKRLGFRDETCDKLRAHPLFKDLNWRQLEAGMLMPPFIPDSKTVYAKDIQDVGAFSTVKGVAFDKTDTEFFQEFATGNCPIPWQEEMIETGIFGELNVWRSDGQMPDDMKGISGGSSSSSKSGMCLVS
In short: as §1

[8] = target: T8, scanMAX Kinase assay panel (Homo sapiens, UniProt Q96PN8); conditions: TSSK3; 1 uM; read-out: Percent Control (%)
T8 construct: purchased DiscoverX
T8 sequence (Q96PN8 1-268): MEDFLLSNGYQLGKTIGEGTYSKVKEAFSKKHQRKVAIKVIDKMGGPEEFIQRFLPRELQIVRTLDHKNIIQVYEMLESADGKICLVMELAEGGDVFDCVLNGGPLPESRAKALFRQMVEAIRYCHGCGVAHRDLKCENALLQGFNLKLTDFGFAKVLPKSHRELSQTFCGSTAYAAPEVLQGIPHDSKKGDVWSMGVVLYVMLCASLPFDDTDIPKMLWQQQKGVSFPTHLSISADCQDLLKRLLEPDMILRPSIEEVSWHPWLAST
In short: as §1

| SMILES | remaining binding at 1 µM [1] [%] | remaining binding at 1 µM [2] [%] | remaining binding at 1 µM [3] [%] | remaining binding at 1 µM [4] [%] | remaining binding at 1 µM [5] [%] | remaining binding at 1 µM [6] [%] | remaining binding at 1 µM [7] [%] | remaining binding at 1 µM [8] [%] |
| --- | --- | --- | --- | --- | --- | --- | --- | --- |
| Cc1ccc(C(=O)Nc2ccc(CN3CCN(C)CC3)c(C(F)(F)F)c2)cc1C#Cc1cnc2c(Nc3cnn(C)c3)cccn12 [Example 1, 4-methyl-3-((8-((1-methyl-1H-pyrazol-4-yl)amino)imidazo[1,2-a]pyridin-3-yl)ethynyl)-N-(4-((4-methylpiperazin-1-yl)methyl)-3-(trifluoromethyl)phenyl)benzamide] | 43 | 1 | 0 | 1 | 87 | 93 | 65 | 95 |
| Cc1cn(-c2cc(NC(=O)c3ccc(C)c(C#Cc4cnc5c(Nc6cnn(C)c6)cccn45)c3)cc(C(F)(F)F)c2)cn1 [Example 12, 4-methyl-N-(3-(4-methyl-1H-imidazol-1-yl)-5-(trifluoromethyl)phenyl)-3-((8-((1-methyl-1H-pyrazol-4-yl)amino)imidazo[1,2-a]pyridin-3-yl)ethynyl)benzamide] | 96 | 20 | 17 | 40 | 100 | 97 | 85 | 100 |
| Cc1ccc(NC(=O)C2(C(=O)Nc3ccc(F)cc3)CC2)cc1C#Cc1cnc2c(Nc3cnn(C(C)C)c3)cccn12 [Example 78] | 88 | 100 | 0 | 100 | 100 | 78 | 99 | 100 |
